Test results reported in patent publication US20220330549A1, “USE OF N-BENZYLBENZAMIDE-BASED COMPOUND AS HERBICIDE” (Northwest A&F University, priority 2020, published 2022).

Tests used:
Type in all cases: in vivo
[1] = tested on: Barnyard grass; assay: Herbicidal activity test for indoor pre-emergence soil treatment; set-up: key: level 1-9; higher = more weed remaining vs blank control; settings: 150 g a.i./ha, visual inspection 21 days after treatment
Summary of the method: (§1)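 Pre-emergence test following NY/T 1155.3-2006: weed seeds were sown in moistened neutral sandy loam (≤2% organic matter) and covered with 0.5–2.0 cm of soil. After 24 h, the soil was sprayed with a 10% EC diluted in water at 150 g(a.i.)/ha. Damage was scored visually on a 1–9 scale at 21 days.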

[2] = tested on: Piemarker; assay: as above; set-up: key: level 1-9; higher = more weed remaining vs blank control; settings: 150 g a.i./ha, visual inspection 21 days after treatment
Summary of the method: as §1

[3] = tested on: green bristlegrass; assay: as above; set-up: key: level 1-9; higher = more weed remaining vs blank control; settings: 150 g a.i./ha, visual inspection 21 days after treatment
Summary of the method: as §1

[4] = tested on: Amaranthus retroflexus; assay: as above; set-up: key: 1-9 levels; higher = more weed remaining vs blank control; settings: 150 g a.i./ha, visual inspection 21 days after treatment
Summary of the method: as §1

[5] = tested on: Digitaria sanguinalis; assay: as above; set-up: key: 1-9 levels; higher = more weed remaining vs blank control; settings: 150 g a.i./ha, visual inspection 21 days after treatment
Summary of the method: as §1

[6] = tested on: Humulus scandens; assay: as above; settings: 150 g a.i./ha, visual inspection 21 days after treatment
Summary of the method: as §1

[7] = tested on: Amaranthus retroflexus; assay: Herbicidal activity test for indoor post-emergence spraying on stems and leaves; set-up: key: grade level by weed remaining vs blank control, e.g. 5 = 10.1-15%; settings: 150 g a.i./ha, visual inspection 21 days after treatment
Summary of the method: (§2)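 Greenhouse-grown weeds, post-emergence foliar spray (NY/T 1155.4-2006 method); visual scoring at 21 d post-treatment as levels vs. untreated blank control (e.g., level 5 = 10.1–15%, level 8 = 35.1–67.5% of control weed).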

[8] = tested on: Barnyard grass; assay: as above; set-up: key: grade level by weed remaining vs blank control, e.g. 5 = 10.1-15%; settings: 150 g a.i./ha, visual inspection 21 days after treatment
Summary of the method: as §2

[9] = tested on: Digitaria sanguinalis; assay: as above; set-up: key: grade level by weed remaining vs blank control, e.g. 5 = 10.1-15%; settings: 150 g a.i./ha, visual inspection 21 days after treatment
Summary of the method: as §2

[10] = tested on: Humulus scandens; assay: as above; set-up: key: grade level by weed remaining vs blank control, e.g. 5 = 10.1-15%; settings: 150 g a.i./ha, visual inspection 21 days after treatment
Summary of the method: as §2

[11] = tested on: Piemarker; assay: as above; set-up: key: grade level by weed remaining vs blank control, e.g. 5 = 10.1-15%; settings: 150 g a.i./ha, visual inspection 21 days after treatment
Summary of the method: as §2

[12] = tested on: green bristlegrass; assay: as above; set-up: key: grade level by weed remaining vs blank control, e.g. 5 = 10.1-15%; settings: 150 g a.i./ha, visual inspection 21 days after treatment
Summary of the method: as §2

[13] = tested on: Broadleaf weed; assay: Post-emergence herbicidal activity test in a paddy field; set-up: key: level scale; higher level = more weed left vs blank control; settings: 150 g a.i./ha (penoxsulam control 250 g(a.i.)/h)
Summary of the method: (§3)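 Efficacy was visually estimated 15 and 30 days after spraying, grading weed coverage relative to an untreated neighbouring plot (level 2 = 0 to 2.5%, level 9 = 67.6 to 100%). Treatments were 150 g(a.i.)/ha from 10% emulsifiable concentrates applied at the 4-5 leaf rice stage, four repeats of 50 m^2 each.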

[14] = tested on: Cyperaceae; assay: as above; set-up: key: level scale; higher level = more weed left vs blank control; settings: 150 g a.i./ha (penoxsulam control 250 g(a.i.)/h)
Summary of the method: as §3

[15] = tested on: Gramineae; assay: as above; set-up: key: level scale; higher level = more weed left vs blank control; settings: 150 g a.i./ha (penoxsulam control 250 g(a.i.)/h)
Summary of the method: as §3

[16] = tested on: Acalypha australis; assay: Field test for weed control in a corn field; settings: for Post-emergence weed control effect, Acalypha australis: 150 g a.i./ha, after treatment
Summary of the method: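 Herbicidal activity against weeds was assessed in corn plots by the GB/T 17980.42-2000 method. Corn at the 2–5 leaf stage received water sprays of 10% emulsifiable concentrates at 150 g(a.i.)/ha, four repeats per treatment over 20 m^2. A 25% mesotrione oil dispersion was the reference. Damage symptoms and severity were rated on levels 1-9 relative to weeds in the blank control area.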

[17] = tested on: Amaranthus retroflexus; assay: Field test for weed control in a corn field; settings: for Post-emergence weed control effect, Amaranthus retroflexus: 150 g a.i./ha, 30 days after treatment
Summary of the method: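 Post-emergence control of Amaranthus retroflexus was assessed in corn plots using the GB/T 17980.42-2000 method. Emulsifiable concentrates (10%) in water were applied by spraying at the 2- to 5-leaf crop stage on 20 m^2 plots, four replicates each, alongside a mesotrione 25% oil dispersion reference. Herbicidal activity was scored on 1-9 levels by weed amount relative to blank control areas.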

[18] = tested on: Barnyard grass; assay: Field test for weed control in a corn field; settings: for Post-emergence weed control effect, Barnyard grass: 150 g a.i./ha, 30 days after treatment
Summary of the method: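 Herbicidal activity against barnyard grass was assessed in corn field plots of 20 m^2, with four replicates per treatment. Compounds were applied as water-diluted 10% emulsifiable concentrates at 150 g(a.i.)/ha at the 2-5 leaf corn stage, with 25% mesotrione oil dispersion as the reference agent. Damage was scored on a 1-9 scale against untreated blank plots.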

[19] = tested on: Chenopodium album; assay: Field test for weed control in a corn field; settings: for Post-emergence weed control effect, Chenopodium album: 150 g a.i./ha, after treatment
Summary of the method: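 Field weed-control testing in corn, run per GB/T 17980.42-2000, scored Chenopodium album on a 1-9 level scale, where each level matches a percentage range of weed remaining relative to the blank control area. Sprays of 10% emulsifiable concentrates in water delivered 150 g(a.i.)/ha at the corn 2-leaf to 5-leaf stage on 20 m^2 plots, four replicates each. Mesotrione 25% oil dispersion served as reference.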

[20] = tested on: Convolvulus arvensis; assay: Field test for weed control in a corn field; settings: for Post-emergence weed control effect, Convolvulus arvensis: 150 g a.i./ha, after treatment
Summary of the method: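 Post-emergence herbicidal activity on Convolvulus arvensis was scored in a corn field on a 1-9 scale, based on symptoms and damage severity. Each level corresponds to the weed remaining as a percentage of the blank control area. Sprays of 10% emulsifiable concentrate at 150 g(a.i.)/ha went on at the corn 2–5 leaf stage, with four replicates of 20 m^2 per treatment.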

[21] = tested on: Digitaria sanguinalis; assay: Field test for weed control in a corn field; settings: for Post-emergence weed control effect, Digitaria sanguinalis: 150 g a.i./ha, after treatment
Summary of the method: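 Field trial in a corn field following GB/T 17980.42-2000. Test compounds were formulated as 10% emulsifiable concentrates, diluted in water and sprayed post-emergence at 150 g(a.i.)/ha when corn had 2 to 5 leaves, with 4 replicates on 20 m^2 plots. Control of Digitaria sanguinalis was scored on a 1-9 scale based on weed damage relative to the untreated blank area.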

[22] = tested on: Portulaca oleracea; assay: Field test for weed control in a corn field; settings: for Post-emergence weed control effect, Portulaca oleracea: 150 g a.i./ha, after treatment
Summary of the method: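 Post-emergence weed control was evaluated in a corn field by the GB/T 17980.42-2000 method. Emulsifiable concentrates (10%) in water were applied as sprays at 150 g(a.i.)/ha at the 2-5 leaf corn stage, in four replicate 20 m^2 plots. A 25% mesotrione oil dispersion served as control agent. Effects were graded 1-9 relative to weed remaining in blank control areas.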

[23] = tested on: Solanum nigrum; assay: Field test for weed control in a corn field; settings: for Post-emergence weed control effect, Solanum nigrum: 150 g a.i./ha, 30 days after treatment
Summary of the method: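 In a corn field trial based on GB/T 17980.42-2000, 10% emulsifiable concentrates diluted in water were sprayed at 150 g(a.i.)/ha at the 2 to 5 leaf stage of corn. Each treatment used 20 m^2 plots and was repeated 4 times, with 25% mesotrione oil dispersion as the reference agent. Solanum nigrum damage was scored on a 1-9 scale against blank control plots.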

[24] = tested on: goosegrass; assay: Field test for weed control in a corn field; settings: for Post-emergence weed control effect, Goose grass: 150 g a.i./ha, after treatment
Summary of the method: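 In this field trial in corn, run per GB/T 17980.42-2000, test agents prepared as 10% emulsifiable concentrates were applied in water as sprays at 150 g(a.i.)/ha at the 2- to 5-leaf corn stage. Each treatment covered 20 m^2 and was repeated 4 times. Goosegrass control was scored 1-9 relative to weed remaining in blank control areas.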

[25] = tested on: green bristlegrass; assay: Field test for weed control in a corn field; settings: for Post-emergence weed control effect, Green bristlegrass: 150 g a.i./ha, after treatment
Summary of the method: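 Herbicidal activity against green bristlegrass was assessed in corn field plots of 20 m^2 per GB/T 17980.42-2000. Test agents, formulated as 10% emulsifiable concentrates, were applied in water at 150 g(a.i.)/ha at the corn 2 leaves to 5 leaves stage, repeated 4 times. A 25% mesotrione oil dispersion served as the control agent, and weed damage was rated on levels 1-9.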

[26] = tested on: nutgrass flatsedge; assay: Field test for weed control in a corn field; settings: for Post-emergence weed control effect, Nutgrass flatsedge: 150 g a.i./ha, after treatment
Summary of the method: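 Herbicidal effect on nutgrass flatsedge was measured in a field planted with corn, using the GB/T 17980.42-2000 method. Emulsifiable concentrates (10%) in water were sprayed at 150 g(a.i.)/ha during the 2-leaf to 5-leaf corn stage, on 20 m^2 plots repeated 4 times. 25% mesotrione oil dispersion was the control agent. Activity was scored from 1 to 9 by weed remaining relative to blank control plots.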

[27] = 150 g(a.i.)/ha, 21 days after treatments

Compound	Herbicidal Activity Barnyard grass [1]	Herbicidal Activity Piemarker [2]	Herbicidal Activity Green bristlegrass [3]	Herbicidal Activity Amaranthus retroflexus [4]	Herbicidal Activity Digitaria sanguinalis [5]	Herbicidal Activity Humulus scandens [6]	Herbicidal Activity Amaranthus retroflexus [7]	Herbicidal Activity Barnyard grass [8]	Herbicidal Activity Digitaria sanguinalis [9]	Herbicidal Activity Humulus scandens [10]	Herbicidal Activity Piemarker [11]	Herbicidal Activity Green bristlegrass [12]	Herbicidal activity 15 days after treatment Broadleaf weed [13]	Herbicidal activity 30 days after treatment Broadleaf weed [13]	Herbicidal activity 15 days after treatment Cyperaceae [14]	Herbicidal activity 30 days after treatment Cyperaceae [14]	Herbicidal activity 15 days after treatment Gramineae [15]	Herbicidal activity 30 days after treatment Gramineae [15]	Post-emergence weed control effect, Acalypha australis [16]	Post-emergence weed control effect, Amaranthus retroflexus [17]	also measured
COc1ccc(OC)c(C(=O)NCc2cccc(C)c2)c1 [Compound A35]	1	1	1	1	2 (equivalent to 0 to 2.5% of the weed in the blank control area)	2 (equivalent to 0 to 2.5% of the weed in the blank control area)	1	1	1	1	1	1	1	2 (equivalent to 0 to 2.5% of the weed in the blank control area)	1	2 (equivalent to 0 to 2.5% of the weed in the blank control area)	2 (equivalent to 0 to 2.5% of the weed in the blank control area)	1	2 (equivalent to 0 to 2.5% of the weed in the blank control area)	1	Post-emergence weed control effect, Barnyard grass [18]: 1; Post-emergence weed control effect, Chenopodium album [19]: 1; Post-emergence weed control effect, Convolvulus arvensis [20]: 2 (equivalent to 0 to 2.5% of the weed in the blank control area); Post-emergence weed control effect, Digitaria sanguinalis [21]: 2 (equivalent to 0 to 2.5% of the weed in the blank control area); Post-emergence weed control effect, Portulaca oleracea [22]: 1; Post-emergence weed control effect, Solanum nigrum [23]: 2 (equivalent to 0 to 2.5% of the weed in the blank control area); Post-emergence weed control effect, Goose grass [24]: 2 (equivalent to 0 to 2.5% of the weed in the blank control area); Post-emergence weed control effect, Green bristlegrass [25]: 2 (equivalent to 0 to 2.5% of the weed in the blank control area); Post-emergence weed control effect, Nutgrass flatsedge [26]: 2 (equivalent to 0 to 2.5% of the weed in the blank control area)
COc1ccccc1C(=O)NCc1ccc(F)cc1 [Compound A02]	1	2 (equivalent to 0 to 2.5% of the weed in the blank control area)	2 (equivalent to 0 to 2.5% of the weed in the blank control area)	3 (equivalent to 2.6 to 5% of the weed in the blank control area)	1	4 (equivalent to 5.1 to 10% of the weed in the blank control area)	1	1	1	1	1	2 (equivalent to 0 to 2.5% of the weed in the blank control area)	1	1	1	1	1	1	1	1	controlling effect on Acalypha australis [16, 27]: 1; controlling effect on Amaranthus retroflexus [17, 27]: 1; Post-emergence weed control effect, Barnyard grass [18]: 1; controlling effect on barnyard grass [18, 27]: 1; Post-emergence weed control effect, Chenopodium album [19]: 1; controlling effect on Chenopodium album [19, 27]: 1; Post-emergence weed control effect, Convolvulus arvensis [20]: 1; controlling effect on Convolvulus arvensis [20, 27]: 1; Post-emergence weed control effect, Digitaria sanguinalis [21]: 1; controlling effect on Digitaria sanguinalis [21, 27]: 1; Post-emergence weed control effect, Portulaca oleracea [22]: 1; controlling effect on Portulaca oleracea [22, 27]: 1; Post-emergence weed control effect, Solanum nigrum [23]: 1; controlling effect on Solanum nigrum [23, 27]: 1; Post-emergence weed control effect, Goose grass [24]: 1; controlling effect on goosegrass [24, 27]: 1; Post-emergence weed control effect, Green bristlegrass [25]: 1; controlling effect on green bristlegrass [25, 27]: 1; Post-emergence weed control effect, Nutgrass flatsedge [26]: 1; controlling effect on nutgrass flatsedge [26, 27]: 1
